Results reported in ChEMBL document CHEMBL4765403, “Augmentation of the antitumor effects of PARP inhibitors in triple-negative breast cancer via degradation by hydrophobic tagging modulation” (Eur J Med Chem, 2020).
Active and inactive are the calls of the source. The calls are words filed in the database; no cut-off is given here.

Tests used:
[1] = biological target: Poly [ADP-ribose] polymerase 1 (Homo sapiens) (UniProt P09874); assay: Induction of PARP1 degradation in triple-negative human MDA-MB-231 cells assessed as fold change in PARP1 protein expression at 0.01 uM incubated for 24 hrs by Western blot analysis relative to control; type: cell-based
Sequence of Poly [ADP-ribose] polymerase 1 (Homo sapiens) (P09874 whole entry): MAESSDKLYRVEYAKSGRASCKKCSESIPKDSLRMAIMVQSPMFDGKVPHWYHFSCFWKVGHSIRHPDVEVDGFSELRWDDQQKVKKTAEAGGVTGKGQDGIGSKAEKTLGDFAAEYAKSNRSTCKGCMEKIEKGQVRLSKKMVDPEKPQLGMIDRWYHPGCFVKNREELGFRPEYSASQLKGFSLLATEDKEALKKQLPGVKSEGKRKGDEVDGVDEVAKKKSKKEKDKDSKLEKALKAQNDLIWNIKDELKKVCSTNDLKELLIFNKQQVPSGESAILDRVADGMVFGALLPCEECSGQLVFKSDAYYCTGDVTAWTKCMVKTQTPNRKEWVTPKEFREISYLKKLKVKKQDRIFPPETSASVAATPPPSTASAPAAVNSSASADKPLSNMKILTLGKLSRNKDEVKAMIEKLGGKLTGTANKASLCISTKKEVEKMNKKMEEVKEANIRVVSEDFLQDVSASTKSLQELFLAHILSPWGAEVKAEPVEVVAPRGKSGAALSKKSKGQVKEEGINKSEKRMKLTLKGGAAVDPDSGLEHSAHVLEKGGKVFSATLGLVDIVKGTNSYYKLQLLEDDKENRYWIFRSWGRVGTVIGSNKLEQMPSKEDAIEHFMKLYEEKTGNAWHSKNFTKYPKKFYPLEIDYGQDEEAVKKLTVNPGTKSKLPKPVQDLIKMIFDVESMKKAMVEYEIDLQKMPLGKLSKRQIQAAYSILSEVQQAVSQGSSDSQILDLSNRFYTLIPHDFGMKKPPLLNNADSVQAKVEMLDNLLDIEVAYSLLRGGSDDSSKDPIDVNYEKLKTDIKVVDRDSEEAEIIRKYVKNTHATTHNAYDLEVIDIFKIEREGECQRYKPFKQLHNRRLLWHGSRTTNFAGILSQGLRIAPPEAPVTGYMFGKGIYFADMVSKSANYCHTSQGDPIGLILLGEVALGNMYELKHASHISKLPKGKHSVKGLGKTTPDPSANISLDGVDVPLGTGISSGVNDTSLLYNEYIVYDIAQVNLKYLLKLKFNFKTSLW

MDA-MB-231 [2] = assay: Induction of apoptosis in human MDA-MB-231 cells assessed as downregulation in survivin gene expression at 5 to 10 uM incubated for 24 to 48 hrs by RT-PCR analysis; type: functional, cell-based; conditions: dose 5-10 µM, time 24-48 hrs
[3] = biological target: Poly [ADP-ribose] polymerase 1 (Homo sapiens) (UniProt P09874); assay: Induction of PARP1 degradation in human MDA-MB-468 cells assessed as fold change in PARP1 protein expression at 5 uM pretreated with caspase I inhibitor, Ac-YVAD-cmk for 2 hrs followed by incubation with compound for 48 hrs by Western blot analysis relative to control; type: cell-based
[4] = biological target: Poly [ADP-ribose] polymerase 1 (Homo sapiens) (UniProt P09874); assay: Induction of PARP1 degradation in human MDA-MB-231 cells at 5 uM incubated for 48 hrs in presence of proteasome inhibitor, carfilzomib by immunoblotting analysis; type: cell-based
[5] = biological target: Poly [ADP-ribose] polymerase 1 (Homo sapiens) (UniProt P09874); assay: Induction of PARP1 degradation in human MDA-MB-468 cells at 5 uM incubated for 48 hrs in presence 5 uM PARP1 inhibitor olaparib by Western blot analysis; type: cell-based
MDA-MB-468 [6] = assay: Induction of apoptosis in human MDA-MB-468 cells assessed as increase in p21 protein expression at 5 uM incubated for 48 hrs by Western blot analysis; type: functional, cell-based
MDA-MB-468 [7] = assay: Induction of endoplasmic reticulum stress in human MDA-MB-468 cells assessed as increase in CHOP protein expression at 5 uM incubated for 48 hrs by Western blot analysis; type: functional, cell-based
[8] = biological target: Poly [ADP-ribose] polymerase 1 (Homo sapiens) (UniProt P09874); assay: Induction of PARP1 degradation in triple negative human MDA-MB-468 cells assessed as fold change in PARP1 protein expression at 5 uM incubated for 48 hrs by Western blot analysis relative to control; type: cell-based
MDA-MB-231 [9] = assay: Induction of autophagy in human MDA-MB-231 cells assessed as upregulation in LC3B gene expression at 5 to 10 uM measured after 24 to 48 hrs by RT-PCR analysis; type: functional, cell-based; conditions: dose 5-10 µM, time 24-48 hrs
MDA-MB-231 [10] = assay: Cytotoxicity against human MDA-MB-231 cells assessed as reduction in cell growth at 5 uM measured after 96 hrs by CCK8 assay relative to control; type: functional
MDA-MB-231 [11] = assay: Induction of endoplasmic reticulum stress in human MDA-MB-231 cells assessed as increase in XBP-1s protein expression at 5 uM measured after 24 to 72 hrs by Western blot analysis; type: functional, cell-based; conditions: time 24-72 hrs
MDA-MB-231 [12] = assay: Induction of apoptosis in human MDA-MB-231 cells assessed as increase in Bax protein expression at 5 uM incubated for 24 to 48 hrs by Western blot analysis; type: functional, cell-based; conditions: time 24-48 hrs
[13] = biological target: Poly [ADP-ribose] polymerase 1 (Homo sapiens) (UniProt P09874); assay: Induction of PARP1 degradation in triple-negative human MDA-MB-468 cells assessed as fold change in PARP1 protein expression at 5 uM incubated for 24 hrs by Western blot analysis relative to control; type: cell-based
MDA-MB-231 [14] = assay: Induction of apoptosis in human MDA-MB-231 cells assessed as increase in p21 protein expression at 5 uM incubated for 24 to 48 hrs by Western blot analysis; type: functional, cell-based; conditions: time 24-48 hrs
MDA-MB-231 [15] = assay: Induction of apoptosis in human MDA-MB-231 cells assessed as upregulation in PUMA gene expression at 5 to 10 uM incubated for 24 to 48 hrs by RT-PCR analysis; type: functional, cell-based; conditions: dose 5-10 µM, time 24-48 hrs
MDA-MB-468 [16] = assay: Induction of autophagy in human MDA-MB-468 cells assessed as upregulation in LC3B protein expression at 5 uM measured after 48 hrs by Western blot analysis; type: functional, cell-based
MDA-MB-231 [17] = assay: Induction of endoplasmic reticulum stress in human MDA-MB-231 cells assessed as upregulation in ATF4 gene expression at 5 to 10 uM incubated for 24 to 48 hrs by RT-PCR analysis; type: functional, cell-based; conditions: dose 5-10 µM, time 24-48 hrs
[18] = biological target: Poly [ADP-ribose] polymerase 1 (Homo sapiens) (UniProt P09874); assay: Induction of PARP1 degradation in triple-negative human MDA-MB-231 cells assessed as fold change in PARP1 protein expression at 10 uM incubated for 48 hrs by Western blot analysis relative to control; type: cell-based
[19] = biological target: Poly [ADP-ribose] polymerase 1 (Homo sapiens) (UniProt P09874); assay: Induction of PARP1 degradation in triple-negative human MDA-MB-231 cells assessed as fold change in PARP1 protein expression at 0.5 uM incubated for 24 hrs by Western blot analysis relative to control; type: cell-based
MDA-MB-231 [20] = assay: Cytotoxicity against triple-negative human MDA-MB-231 cells assessed as reduction in cell viability measured after 48 hrs by CCK8 assay; type: functional, cell-based; conditions: MDA-MB-231, 48 h
MDA-MB-231 [21] = assay: Induction of apoptosis in human MDA-MB-231 cells assessed as decrease in Bcl2 protein expression at 5 uM incubated for 24 to 48 hrs by Western blot analysis; type: functional, cell-based; conditions: time 24-48 hrs
[22] = biological target: Poly [ADP-ribose] polymerase 1 (Homo sapiens) (UniProt P09874); assay: Induction of PARP1 degradation in human MDA-MB-231 cells assessed as fold change in PARP1 protein expression at 5 uM incubated for 48 hrs in presence of caspase I inhibitor, Ac-YVAD-cmk by Western blot analysis relative to control; type: cell-based
MDA-MB-231 [23] = assay: Induction of endoplasmic reticulum stress in human MDA-MB-231 cells assessed as upregulation in XBP-1s gene expression at 5 to 10 uM incubated for 24 to 48 hrs by RT-PCR analysis; type: functional, cell-based; conditions: dose 5-10 µM, time 24-48 hrs
[24] = biological target: Poly [ADP-ribose] polymerase 1 (Homo sapiens) (UniProt P09874); assay: Induction of PARP1 degradation in triple-negative human MDA-MB-231 cells assessed as fold change in PARP1 protein expression at 0.1 uM incubated for 48 hrs by Western blot analysis relative to control; type: cell-based
[25] = biological target: Poly [ADP-ribose] polymerase 1 (Homo sapiens) (UniProt P09874); assay: Induction of PARP1 degradation in triple-negative human MDA-MB-231 cells assessed as fold change in PARP1 protein expression at 2.5 uM incubated for 48 hrs by Western blot analysis relative to control; type: cell-based
MDA-MB-231 [26] = assay: Induction of autophagy in human MDA-MB-231 cells assessed as upregulation in LC3A gene expression at 5 to 10 uM measured after 24 to 48 hrs by RT-PCR analysis; type: functional, cell-based; conditions: dose 5-10 µM, time 24-48 hrs
MDA-MB-231 [27] = assay: Induction of endoplasmic reticulum stress in human MDA-MB-231 cells assessed as upregulation in CHOP gene expression at 5 to 10 uM incubated for 24 to 48 hrs by RT-PCR analysis; type: functional, cell-based; conditions: dose 5-10 µM, time 24-48 hrs
MDA-MB-231 [28] = assay: Cytotoxicity against human MDA-MB-231 cells assessed as reduction in cell viability measured after 96 hrs by CCK8 assay; type: functional, cell-based; conditions: MDA-MB-231, 96 h
MDA-MB-468 [29] = assay: Induction of endoplasmic reticulum stress in human MDA-MB-468 cells assessed as increase in XBP-1s protein expression at 5 uM incubated for 48 hrs by Western blot analysis; type: functional, cell-based

`O=C(CC1c2ccccc2-c2ccccc21)N1CCN(C(=O)c2cc(Cc3n[nH]c(=O)c4ccccc34)ccc2F)CC1` was tested, and the fold change (FC) [1] was 0.9, the Activity (MDA-MB-231 [2]) was “Active” and the fold change (FC) [3] was 0.2. For the same compound, the Activity [4] was “inactive”, the Activity [5] was “inactive” and the Activity (MDA-MB-468 [6]) was “Active”. For the same compound, the Activity (MDA-MB-468 [7]) was “Active”, the fold change (FC) [8] was 0.3 and the Activity (MDA-MB-231 [9]) was “Active”. For the same compound, the inhibition at 5 µM (MDA-MB-231 [10]) was 80%, the Activity (MDA-MB-231 [11]) was “Active” and the Activity (MDA-MB-231 [12]) was “Active”. For the same compound, the fold change (FC) [13] was 0.8, the Activity (MDA-MB-231 [14]) was “Active” and the Activity (MDA-MB-231 [15]) was “Active”. The Activity (MDA-MB-468 [16]) was “Active”, the Activity (MDA-MB-231 [17]) was “Active” and the fold change (FC) [18] was 0.1. For the same compound, the fold change (FC) [19] was 0.8, the IC50 (MDA-MB-231 [20]) was 10.6 µM and the Activity (MDA-MB-231 [21]) was “Active”. For the same compound, the fold change (FC) [22] was 0.3, the Activity (MDA-MB-231 [23]) was “Active” and the fold change (FC) [24] was 0.6. The fold change (FC) [25] was 0.1, the Activity (MDA-MB-231 [26]) was “Active” and the Activity (MDA-MB-231 [27]) was “Active”. For the same compound, the IC50 (MDA-MB-231 [28]) was 2.1 µM and the Activity (MDA-MB-468 [29]) was “Active”.
